{"source": "paper PMC5218480", "about": "(PLoS ONE, 2017)", "system": "MV-4-11 cells", "assay": "Gene expression microarray analysis (Affymetrix PrimeView) and GSEA", "type": "cell-based, human", "set-up": "RFU PODN (11730768_x_at) / Fold change /veh PODN (11730768_x_at) / RFU LINC00158 (11744669_a_at) / Fold change /veh LINC00158 (11744669_a_at) / RFU DUSP10 (11751237_a_at) / Fold change /veh DUSP10 (11751237_a_at) / RFU ID3 (11757404_x_at) / Fold change /veh ID3 (11757404_x_at) / RFU PLEKHG5 (11737974_s_at) / Fold change /veh PLEKHG5 (11737974_s_at) / RFU LRRC4B (11730491_at) / Fold change /veh LRRC4B (11730491_at) / RFU GIMAP4 (11747438_a_at) / Fold change /veh GIMAP4 (11747438_a_at) / RFU KRT8 (11758183_x_at) / Fold change /veh KRT8 (11758183_x_at) / RFU CNN1 (11734310_a_at) / Fold change /veh CNN1 (11734310_a_at) / RFU VPS37D (11726825_at) / Fold change /veh VPS37D (11726825_at) / RFU C10orf10 (11716522_x_at) / Fold change /veh C10orf10 (11716522_x_at) / RFU KIR2DL2 /// KIR2DL4 /// KIR2DL5A /// KIR2DL5B /// KIR2DS1 /// KIR2DS2 /// KIR2DS3 /// KIR2DS4 /// KIR3DL3 /// KIR3DL3 /// KIR3DS1 (11738374_at) / Fold change /veh KIR2DL2 /// KIR2DL4 /// KIR2DL5A /// KIR2DL5B /// KIR2DS1 /// KIR2DS2 /// KIR2DS3 /// KIR2DS4 /// KIR3DL3 /// KIR3DL3 /// KIR3DS1 (11738374_at) / RFU C1QL1 (11718748_at) / Fold change /veh C1QL1 (11718748_at) / RFU TMPRSS4 (11747572_a_at) / Fold change /veh TMPRSS4 (11747572_a_at) / RFU HAMP (11756126_x_at) / Fold change /veh HAMP (11756126_x_at) / RFU RNFT2 (11725882_a_at) / Fold change /veh RNFT2 (11725882_a_at) / RFU NR4A2 (11747474_a_at) / Fold change /veh NR4A2 (11747474_a_at) / RFU ABCC12 (11746883_a_at) / Fold change /veh ABCC12 (11746883_a_at) / RFU TMEM136 (11760407_x_at) / Fold change /veh TMEM136 (11760407_x_at) / RFU CLDN22 /// WWC2 (11732394_at) / Fold change /veh CLDN22 /// WWC2 (11732394_at) / RFU HLA-DPB1 (11760878_x_at) / Fold change /veh HLA-DPB1 (11760878_x_at) / RFU SPINT1 (11716480_a_at) / Fold change /veh SPINT1 (11716480_a_at) / RFU GAP43 (11754022_s_at) / Fold change /veh GAP43 (11754022_s_at) / RFU A4GNT (11735810_at) / Fold change /veh A4GNT (11735810_at) / RFU PRB3 (11715151_x_at) / Fold change /veh PRB3 (11715151_x_at) / RFU TUBB4B (11761932_at) / Fold change /veh TUBB4B (11761932_at) / RFU CAPN14 (11732068_a_at) / Fold change /veh CAPN14 (11732068_a_at) / RFU TMCC2 (11721928_a_at) / Fold change /veh TMCC2 (11721928_a_at) / RFU IRGQ (11745062_a_at) / Fold change /veh IRGQ (11745062_a_at) / RFU FAM174B (11720279_a_at) / Fold change /veh FAM174B (11720279_a_at) / RFU TMPRSS4 (11748680_a_at) / Fold change /veh TMPRSS4 (11748680_a_at) / RFU FAM212B (11763350_a_at) / Fold change /veh FAM212B (11763350_a_at) / RFU PLEKHG5 (11743358_a_at) / Fold change /veh PLEKHG5 (11743358_a_at) / RFU ZSCAN30 (11745921_a_at) / Fold change /veh ZSCAN30 (11745921_a_at) / RFU CMKLR1 (11741424_a_at) / Fold change /veh CMKLR1 (11741424_a_at) / RFU LOC101060620 /// MAPK8IP1 (11723275_at) / Fold change /veh LOC101060620 /// MAPK8IP1 (11723275_at) / RFU SPTSSB (11747773_x_at) / Fold change /veh SPTSSB (11747773_x_at) / RFU PRSS12 (11739890_at) / Fold change /veh PRSS12 (11739890_at) / RFU BIN1 (11741810_x_at) / Fold change /veh BIN1 (11741810_x_at) / RFU WNT11 (11732464_a_at) / Fold change /veh WNT11 (11732464_a_at) / RFU C10orf10 (11716521_a_at) / Fold change /veh C10orf10 (11716521_a_at) / RFU C5orf56 (11738089_at) / Fold change /veh C5orf56 (11738089_at) / RFU CYB561 (11721691_x_at) / Fold change /veh CYB561 (11721691_x_at) / RFU ANKRD19P (11752326_a_at) / Fold change /veh ANKRD19P (11752326_a_at) / RFU OR2T12 /// OR2T33 /// OR2T8 (11738714_s_at) / Fold change /veh OR2T12 /// OR2T33 /// OR2T8 (11738714_s_at) / RFU VCAN (11748164_a_at) / Fold change /veh VCAN (11748164_a_at) / RFU JSRP1 (11732532_at) / Fold change /veh JSRP1 (11732532_at) / RFU KRTAP10-11 (11738290_x_at) / Fold change /veh KRTAP10-11 (11738290_x_at) / RFU MYO3A (11730013_a_at) / Fold change /veh MYO3A (11730013_a_at) / RFU EBF3 (11725865_a_at) / Fold change /veh EBF3 (11725865_a_at) / RFU CAMK2N1 (11719241_x_at) / Fold change /veh CAMK2N1 (11719241_x_at) / RFU C5orf56 (11738088_a_at) / Fold change /veh C5orf56 (11738088_a_at) / RFU OLFML3 (11715873_a_at) / Fold change /veh OLFML3 (11715873_a_at) / RFU LOC100653217 /// NTM (11731650_a_at) / Fold change /veh LOC100653217 /// NTM (11731650_a_at) / RFU MAPK11 (11762145_a_at) / Fold change /veh MAPK11 (11762145_a_at) / RFU FIZ1 (11724087_x_at) / Fold change /veh FIZ1 (11724087_x_at) / RFU OASL (11726364_x_at) / Fold change /veh OASL (11726364_x_at) / RFU SOX15 (11748057_x_at) / Fold change /veh SOX15 (11748057_x_at) / RFU CD79A (11719716_a_at) / Fold change /veh CD79A (11719716_a_at) / RFU HIST1H1D (11736915_at) / Fold change /veh HIST1H1D (11736915_at) / RFU CASKIN2 (11723855_a_at) / Fold change /veh CASKIN2 (11723855_a_at) / RFU LOC730098 (11760151_x_at) / Fold change /veh LOC730098 (11760151_x_at) / RFU OR4N2 (11742367_at) / Fold change /veh OR4N2 (11742367_at) / RFU PRRT2 (11749266_a_at) / Fold change /veh PRRT2 (11749266_a_at) / RFU SNX32 (11753110_a_at) / Fold change /veh SNX32 (11753110_a_at) / RFU CDHR5 (11726645_a_at) / Fold change /veh CDHR5 (11726645_a_at) / RFU RCAN1 (11760418_a_at) / Fold change /veh RCAN1 (11760418_a_at) / RFU FAM167A (11723789_a_at) / Fold change /veh FAM167A (11723789_a_at) / RFU FAM26E (11764081_at) / Fold change /veh FAM26E (11764081_at) / RFU ISYNA1 (11749810_s_at) / Fold change /veh ISYNA1 (11749810_s_at) / RFU ACY1 (11761880_at) / Fold change /veh ACY1 (11761880_at) / RFU 11764098_at / Fold change /veh 11764098_at / RFU SAMD14 (11745864_x_at) / Fold change /veh SAMD14 (11745864_x_at) / RFU NPB (11741838_a_at) / Fold change /veh NPB (11741838_a_at) / RFU TMPRSS6 (11731388_a_at) / Fold change /veh TMPRSS6 (11731388_a_at) / RFU KRTAP10-2 (11738614_at) / Fold change /veh KRTAP10-2 (11738614_at) / RFU ARHGAP8 /// PRR5-ARHGAP8 (11727945_x_at) / Fold change /veh ARHGAP8 /// PRR5-ARHGAP8 (11727945_x_at) / RFU KRTAP5-7 /// NADSYN1 (11734609_at) / Fold change /veh KRTAP5-7 /// NADSYN1 (11734609_at) / RFU RASL12 (11751679_a_at) / Fold change /veh RASL12 (11751679_a_at) / RFU CDKN2B (11736163_a_at) / Fold change /veh CDKN2B (11736163_a_at) / RFU PRF1 (11729649_at) / Fold change /veh PRF1 (11729649_at) / RFU, ZNF638 /// ZNF638-IT1 / Fold change vs veh, ZNF638 /// ZNF638-IT1 / RFU, PANK3 / Fold change vs veh, PANK3 / RFU, SH3YL1 / Fold change vs veh, SH3YL1 / RFU, ZEB2 / Fold change vs veh, ZEB2 / RFU, NRIP1 / Fold change vs veh, NRIP1 / RFU, PTTG1IP / Fold change vs veh, PTTG1IP / RFU, CAPN2 / Fold change vs veh, CAPN2 / RFU, MED14 / Fold change vs veh, MED14 / RFU, SNORA58 / Fold change vs veh, SNORA58 / RFU, C1orf63 / Fold change vs veh, C1orf63 / RFU, LRRFIP1 / Fold change vs veh, LRRFIP1 / RFU, NDUFAF7 / Fold change vs veh, NDUFAF7 / RFU, SLC12A2 / Fold change vs veh, SLC12A2 / RFU, IBTK / Fold change vs veh, IBTK / RFU, ESF1 / Fold change vs veh, ESF1 / Fold change vs veh, TMEM50B / RFU, TAOK1 / Fold change vs veh, TAOK1 / RFU, ACBD3 / Fold change vs veh, ACBD3 / RFU, TMA16 / Fold change vs veh, TMA16 / RFU, RWDD3 / Fold change vs veh, RWDD3 / RFU, BCAT1 / Fold change vs veh, BCAT1 / RFU, EDEM3 / Fold change vs veh, EDEM3 / RFU, TMEM33 / Fold change vs veh, TMEM33 / RFU, WDR75 / Fold change vs veh, WDR75 / RFU, AHCTF1 / Fold change vs veh, AHCTF1 / RFU, TFRC / Fold change vs veh, TFRC / RFU, ZDHHC17 / Fold change vs veh, ZDHHC17 / RFU, NOM1 / Fold change vs veh, NOM1 / RFU, ARL8B / Fold change vs veh, ARL8B / RFU, ZBTB11 / Fold change vs veh, ZBTB11 / RFU, TAMM41 / Fold change vs veh, TAMM41 / RFU, KIAA1704 /// LOC100996395 / Fold change vs veh, KIAA1704 /// LOC100996395 / RFU, ING1 / Fold change vs veh, ING1 / RFU, TRMT61B / Fold change vs veh, TRMT61B / RFU, FUBP3 / Fold change vs veh, FUBP3 / RFU, TP53 / Fold change vs veh, TP53 / RFU, TNKS2 / Fold change vs veh, TNKS2 / RFU, ZFP14 / Fold change vs veh, ZFP14 / RFU, ACTR2 / Fold change vs veh, ACTR2 / RFU, PPP3R1 / Fold change vs veh, PPP3R1 / RFU, PIK3R1 / Fold change vs veh, PIK3R1 / RFU, HNRNPA1 / Fold change vs veh, HNRNPA1 / RFU, RNF170 / Fold change vs veh, RNF170 / RFU, ZNF28 / Fold change vs veh, ZNF28 / RFU, RNGTT / Fold change vs veh, RNGTT / RFU, OGT / Fold change vs veh, OGT / RFU, BRD1 / Fold change vs veh, BRD1 / RFU, MARS / Fold change vs veh, MARS / RFU, ZNF655 / Fold change vs veh, ZNF655 / RFU, FAHD1 / Fold change vs veh, FAHD1 / RFU, BDP1 / Fold change vs veh, BDP1 / RFU, LRRCC1 / Fold change vs veh, LRRCC1 / RFU, ARID1A / Fold change vs veh, ARID1A / RFU, ZNF146 / Fold change vs veh, ZNF146 / RFU, ZNF330 / Fold change vs veh, ZNF330 / RFU, GPN3 / Fold change vs veh, GPN3 / RFU, C9orf123 / Fold change vs veh, C9orf123 / RFU, N4BP2L2 / Fold change vs veh, N4BP2L2 / RFU, ARFIP1 / Fold change vs veh, ARFIP1 / RFU, FAM179B / Fold change vs veh, FAM179B / RFU, BCL10 / Fold change vs veh, BCL10 / RFU, UHRF1BP1L / Fold change vs veh, UHRF1BP1L / RFU, BET1 / Fold change vs veh, BET1 / RFU, CNOT2 / Fold change vs veh, CNOT2 / RFU, ZNF268 / Fold change vs veh, ZNF268 / Fold change vs veh, ZNF507 / RFU, DGCR2 / Fold change vs veh, DGCR2 / RFU, WDSUB1 / Fold change vs veh, WDSUB1 / Fold change vs veh, HSP90B1 /// MIR3652 / RFU, ADSS / Fold change vs veh, ADSS / RFU, GK / Fold change vs veh, GK / RFU, ZNF148 / Fold change vs veh, ZNF148 / RFU, TAF9 / Fold change vs veh, TAF9 / RFU, SLC1A5 / Fold change vs veh, SLC1A5 / RFU, SLMO2 / Fold change vs veh, SLMO2 / RFU, ABCC4 / Fold change vs veh, ABCC4 / RFU, LOC101060439 /// RAP1B / Fold change vs veh, LOC101060439 /// RAP1B / RFU, RFX7 / Fold change vs veh, RFX7 / RFU, GTPBP10 / Fold change vs veh, GTPBP10 / RFU, CNEP1R1 / Fold change vs veh, CNEP1R1 / RFU, BIVM-ERCC5 /// ERCC5 / Fold change vs veh, BIVM-ERCC5 /// ERCC5 / RFU, ILF3 / Fold change vs veh, ILF3 / RFU 11762660_at / Fold change /veh 11762660_at / RFU VCAN (11757783_s_at) / Fold change /veh VCAN (11757783_s_at) / RFU DDX43 (11728927_at) / Fold change /veh DDX43 (11728927_at) / RFU KRT8 (11758188_x_at) / Fold change /veh KRT8 (11758188_x_at) / RFU NKD1 (11759106_at) / Fold change /veh NKD1 (11759106_at) / RFU SRD5A1 (11742802_a_at) / Fold change /veh SRD5A1 (11742802_a_at) / RFU TPSAB1 /// TPSB2 (11721975_s_at) / Fold change /veh TPSAB1 /// TPSB2 (11721975_s_at) / RFU GSTM3 (11746129_a_at) / Fold change /veh GSTM3 (11746129_a_at) / RFU IL23R (11737362_x_at) / Fold change /veh IL23R (11737362_x_at) / RFU TMEM51 (11727254_a_at) / Fold change /veh TMEM51 (11727254_a_at) / RFU PIWIL2 (11732686_x_at) / Fold change /veh PIWIL2 (11732686_x_at) / RFU ORM1 (11744905_x_at) / Fold change /veh ORM1 (11744905_x_at) / RFU CCDC152 (11743942_at) / Fold change /veh CCDC152 (11743942_at) / RFU ECM1 (11717891_a_at) / Fold change /veh ECM1 (11717891_a_at) / RFU IL23R (11748794_a_at) / Fold change /veh IL23R (11748794_a_at) / RFU TNFAIP8L3 (11732012_x_at) / Fold change /veh TNFAIP8L3 (11732012_x_at) / RFU MBOAT4 (11741988_at) / Fold change /veh MBOAT4 (11741988_at) / RFU 11764193_at / Fold change /veh 11764193_at / RFU TMEM53 (11763286_at) / Fold change /veh TMEM53 (11763286_at) / RFU MAGEB2 (11727129_at) / Fold change /veh MAGEB2 (11727129_at) / RFU TMEM200A (11744735_a_at) / Fold change /veh TMEM200A (11744735_a_at) / RFU CCDC152 (11751479_a_at) / Fold change /veh CCDC152 (11751479_a_at) / RFU FAM211A (11726209_a_at) / Fold change /veh FAM211A (11726209_a_at) / RFU RGS16 (11746705_a_at) / Fold change /veh RGS16 (11746705_a_at) / RFU VCAN (11755009_s_at) / Fold change /veh VCAN (11755009_s_at) / RFU RHOB (11743442_s_at) / Fold change /veh RHOB (11743442_s_at) / RFU RGS16 (11720943_a_at) / Fold change /veh RGS16 (11720943_a_at) / RFU RGS16 (11720944_at) / Fold change /veh RGS16 (11720944_at) / RFU, VPS4B / Fold change vs veh, VPS4B / RFU, CREB1 / Fold change vs veh, CREB1 / RFU, DNAJC13 / Fold change vs veh, DNAJC13 / RFU, GNAQ / Fold change vs veh, GNAQ / RFU, CDK5R1 / Fold change vs veh, CDK5R1 / RFU, ZRANB3 / Fold change vs veh, ZRANB3 / RFU, CUL4A / Fold change vs veh, CUL4A / RFU, CCNY / Fold change vs veh, CCNY / RFU, UFL1 / Fold change vs veh, UFL1 / RFU, COG3 / Fold change vs veh, COG3 / RFU, DIAPH2 / Fold change vs veh, DIAPH2 / RFU, SKA2 / Fold change vs veh, SKA2 / RFU, AFF3 / Fold change vs veh, AFF3 / RFU, LMF1 / Fold change vs veh, LMF1 / RFU, IPO11 / Fold change vs veh, IPO11 / RFU, DFFB / Fold change vs veh, DFFB / RFU, FOXP1 / Fold change vs veh, FOXP1 / RFU, CARD8 / Fold change vs veh, CARD8 / RFU, STRN3 / Fold change vs veh, STRN3 / RFU, ADK / Fold change vs veh, ADK / RFU, RASSF2 / Fold change vs veh, RASSF2 / RFU, WIPF1 / Fold change vs veh, WIPF1 / RFU, LARP1B / Fold change vs veh, LARP1B / RFU, RASA1 / Fold change vs veh, RASA1 / RFU, RB1 / Fold change vs veh, RB1 / RFU, PPFIA1 / Fold change vs veh, PPFIA1 / RFU, MAT2A / Fold change vs veh, MAT2A / RFU, CCT5 / Fold change vs veh, CCT5 / RFU, WDR92 / Fold change vs veh, WDR92 / RFU, CUX1 / Fold change vs veh, CUX1 / RFU, TTC7A / Fold change vs veh, TTC7A / RFU, TMEM135 / Fold change vs veh, TMEM135 / RFU, DEPTOR / Fold change vs veh, DEPTOR / RFU, CPM / Fold change vs veh, CPM / RFU, DNAJB6 / Fold change vs veh, DNAJB6 / RFU, CACNA2D3 / Fold change vs veh, CACNA2D3 / RFU, DTX4 / Fold change vs veh, DTX4 / RFU, TFCP2 / Fold change vs veh, TFCP2 / RFU, GMCL1 /// GMCL1P1 / Fold change vs veh, GMCL1 /// GMCL1P1 / RFU, AEBP2 / Fold change vs veh, AEBP2 / RFU, SNHG1 /// SNORD22 /// SNORD25 /// SNORD26 /// SNORD27 /// SNORD28 /// SNORD29 /// SNORD31 / Fold change vs veh, SNHG1 /// SNORD22 /// SNORD25 /// SNORD26 /// SNORD27 /// SNORD28 /// SNORD29 /// SNORD31 / Fold change (Aza/veh), C12orf56 (ProbeSet 11735607_a_at) / Fold change (ACY-1035/veh), C12orf56 (ProbeSet 11735607_a_at) / Fold change (Aza/veh), FGFR1OP (ProbeSet 11751329_s_at) / Fold change (ACY-1035/veh), FGFR1OP (ProbeSet 11751329_s_at) / Fold change (Aza/veh), VPS36 (ProbeSet 11739960_a_at) / Fold change (ACY-1035/veh), VPS36 (ProbeSet 11739960_a_at) / RFU SYPL1 (11715823_x_at) / Fold change /veh SYPL1 (11715823_x_at) / RFU IGFBP7 (11715501_s_at) / Fold change /veh IGFBP7 (11715501_s_at) / RFU REEP3 (11722064_at) / Fold change /veh REEP3 (11722064_at) / RFU IGLL1 (11728026_x_at) / Fold change /veh IGLL1 (11728026_x_at): dose or concentration left out as unconfirmed", "settings": "ProbeSet 11727641_at; LIST B"}
{"smiles": "Nc1ncn([C@@H]2O[C@H](CO)[C@@H](O)[C@H]2O)c(=O)n1", "note": "[azacitidine]", "values": [{"measurement": "RFU, NOM1", "value": 178.62, "unit": "RFU"}]}
